Drawing on patent US20240208956A1, “1,3,4-OXADIAZOLE THIOCARBONYL COMPOUNDS AS HISTONE DEACETYLASE 6 INHIBITOR, AND PHARMACEUTICAL COMPOSITION COMPRISING THE SAME” (CHONG KUN DANG PHARMACEUTICAL CORP., priority 2021, published 2024), this text covers IC50 for 21 compounds.

Bounds are passed on as bounds.

A word on the IC50: it is the concentration that gives 50% inhibition.

Experiment [1] has as its target HDAC1 (Homo sapiens (Human), UniProt Q13547). Briefly: HDAC enzyme activity inhibition (in vitro), HDAC1 Fluorimetric Drug Discovery Assay Kit. Type of experiment: biochemical. Conditions: samples at 100, 1000 and 10000 nM; 37° C. 60 minutes; fluorescence Ex 390 nm, Em 460 nm. On the procedure: Experimental Example 1. Confirmation of HDAC Enzyme Activity Inhibition (In Vitro)
(§1) An HDAC enzyme inhibitory capacity of test material was measured by using HDAC1 Fluorimetric Drug Discovery Assay Kit (Enzolifesciences: BML-AK511) and HDAC6 human recombinant (Calbiochem: 382180). For a HDAC1 assay, samples were treated at a concentration of 100 nM, 1000 nM and 10000 nM. For an HDAC6 assay, samples were treated at a concentration of 0.1 nM, 1 nM, 10 nM, 100 nM and 1000 nM. After the sample treatment, a reaction was continued at 37° C. for 60 minutes, treated with a developer, and subjected to reaction at 37° C. for 30 minutes, after which fluorescence intensity (Ex 390 nm, Em 460 nm) was measured by using FlexStation3 (Molecular device). For final result values, each […] value was calculated with GraphPad Prism 4.0 program.

The target of experiment [2] is HDAC6 human recombinant (Homo sapiens (Human), UniProt Q9UBN7). The experiment can be described thus: HDAC enzyme activity inhibition (in vitro), HDAC6 fluorimetric assay. It is filed as biochemical. Conditions: samples at 0.1-1000 nM; 37° C. 60 minutes; fluorescence Ex 390 nm, Em 460 nm. On the procedure: Confirmation of HDAC Enzyme Activity Inhibition (In Vitro)
Chain of HDAC6 human recombinant (Q9UBN7 whole entry): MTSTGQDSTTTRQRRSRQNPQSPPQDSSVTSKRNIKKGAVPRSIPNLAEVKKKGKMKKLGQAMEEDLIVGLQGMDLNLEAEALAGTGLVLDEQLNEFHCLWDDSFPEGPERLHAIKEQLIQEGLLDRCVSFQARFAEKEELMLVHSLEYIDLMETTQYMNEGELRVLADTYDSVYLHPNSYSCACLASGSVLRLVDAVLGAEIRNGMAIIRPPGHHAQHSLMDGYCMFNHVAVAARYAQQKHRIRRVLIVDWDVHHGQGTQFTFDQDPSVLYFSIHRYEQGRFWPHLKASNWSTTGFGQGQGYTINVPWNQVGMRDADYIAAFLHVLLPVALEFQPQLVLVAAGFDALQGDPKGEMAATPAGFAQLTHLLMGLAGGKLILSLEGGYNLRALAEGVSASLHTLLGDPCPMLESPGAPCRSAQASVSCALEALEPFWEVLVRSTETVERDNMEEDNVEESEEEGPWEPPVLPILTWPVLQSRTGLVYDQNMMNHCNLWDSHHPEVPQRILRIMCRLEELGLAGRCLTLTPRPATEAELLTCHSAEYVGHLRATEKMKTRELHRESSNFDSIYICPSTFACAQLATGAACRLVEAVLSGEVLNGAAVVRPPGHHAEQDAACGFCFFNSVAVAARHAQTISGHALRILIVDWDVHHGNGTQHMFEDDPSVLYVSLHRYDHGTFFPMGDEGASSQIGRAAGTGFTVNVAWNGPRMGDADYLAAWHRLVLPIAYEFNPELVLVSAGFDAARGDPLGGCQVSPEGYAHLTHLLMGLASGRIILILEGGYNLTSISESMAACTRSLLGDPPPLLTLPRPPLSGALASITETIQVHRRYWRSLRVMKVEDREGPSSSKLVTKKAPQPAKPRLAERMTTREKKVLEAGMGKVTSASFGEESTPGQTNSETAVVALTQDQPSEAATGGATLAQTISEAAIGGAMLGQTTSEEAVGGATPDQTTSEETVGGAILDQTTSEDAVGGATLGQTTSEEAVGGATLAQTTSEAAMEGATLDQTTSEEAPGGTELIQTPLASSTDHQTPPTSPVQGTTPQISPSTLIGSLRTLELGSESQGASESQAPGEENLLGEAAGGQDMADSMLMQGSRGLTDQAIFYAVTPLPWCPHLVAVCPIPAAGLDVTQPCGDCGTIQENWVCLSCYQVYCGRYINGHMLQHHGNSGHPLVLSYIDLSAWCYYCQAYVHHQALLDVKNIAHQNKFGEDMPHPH
as §1

Chain of HDAC1 (Q13547 whole entry): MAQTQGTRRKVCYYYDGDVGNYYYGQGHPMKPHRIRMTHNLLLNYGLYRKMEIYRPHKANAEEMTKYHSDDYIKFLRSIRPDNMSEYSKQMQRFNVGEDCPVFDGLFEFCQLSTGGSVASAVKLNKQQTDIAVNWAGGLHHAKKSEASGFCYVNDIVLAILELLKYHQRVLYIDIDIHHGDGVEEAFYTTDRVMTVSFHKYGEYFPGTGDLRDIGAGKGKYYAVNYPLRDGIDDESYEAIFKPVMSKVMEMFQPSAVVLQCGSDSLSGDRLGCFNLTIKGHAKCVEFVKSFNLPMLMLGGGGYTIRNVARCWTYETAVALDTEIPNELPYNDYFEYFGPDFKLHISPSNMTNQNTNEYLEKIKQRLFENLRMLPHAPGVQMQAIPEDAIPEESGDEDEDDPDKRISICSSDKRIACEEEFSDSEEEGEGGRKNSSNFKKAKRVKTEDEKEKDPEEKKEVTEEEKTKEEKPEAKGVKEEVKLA

As to `Fc1cc(-c2nnc(C(F)F)o2)ccc1CN(C(=S)N1CC2(C1)CN(C1COC1)C2)c1ccc(Cl)c(Cl)c1` [Compound 24, N-(3,4-dichlorophenyl)-N-(4-(5-(difluoromethyl)-1,3,4-oxadiazol-2-yl)-2-fluorobenzyl)-6-(oxetan-3-yl)-2,6-diazaspiro[3.3]heptan-2-carbothioamide], the IC50 in experiment [1] was more than 10 µM; in experiment [2], 0.083 µM.

In the case of `CN1CC2(C1)CN(C(=S)N(Cc1ccc(-c3nnc(C(F)F)o3)cc1F)c1ccc(F)c(Cl)c1)C2` [Compound 25, N-(3-chloro-4-fluorophenyl)-N-(4-(5-(difluoromethyl)-1,3,4-oxadiazol-2-yl)-2-fluorobenzyl)-6-methyl-2,6-diazaspiro[3.3]heptan-2-carbothioamide], the IC50 is more than 10 µM in experiment [1] and 0.046 µM in experiment [2].

With `CN1CC2(C1)CN(C(=S)N(Cc1ccc(-c3nnc(C(F)F)o3)cc1)c1ccc(F)c(Cl)c1)C2` [Compound 26, N-(3-chloro-4-fluorophenyl)-N-(4-(5-(difluoromethyl)-1,3,4-oxadiazol-2-yl)benzyl)-6-methyl-2,6-diazaspiro[3.3]heptan-2-carbothioamide], the IC50 in experiment [1] was more than 10 µM; in experiment [2] it was 0.089 µM.

Regarding `Fc1ccc(N(Cc2ccc(-c3nnc(C(F)F)o3)cc2)C(=S)N2CC3(C2)CN(C2COC2)C3)cc1Cl` [Compound 27, N-(3-chloro-4-fluorophenyl)-N-(4-(5-(difluoromethyl)-1,3,4-oxadiazol-2-yl)benzyl)-6-(oxetan-3-yl)-2,6-diazaspiro[3.3]heptan-2-carbothioamide], the IC50 in experiment [1] is more than 10 µM; in experiment [2], 0.112 µM.

In the case of `CC(C)N1CC2(CN(C(=S)N(Cc3ccc(-c4nnc(C(F)F)o4)cc3F)c3ccc(F)c(Cl)c3)C2)C1` [Compound 28, N-(3-chloro-4-fluorophenyl)-N-(4-(5-(difluoromethyl)-1,3,4-oxadiazol-2-yl)-2-fluorobenzyl)-6-isopropyl-2,6-diazaspiro[3.3]heptan-2-carbothioamide], the figures for the IC50 in experiment [1] and in experiment [2] were more than 10 µM and 0.077 µM, respectively.

Regarding `CC(C)N1CC2(CN(C(=S)N(Cc3ccc(-c4nnc(C(F)F)o4)cc3)c3ccc(F)c(Cl)c3)C2)C1` [Compound 29, N-(3-chloro-4-fluorophenyl)-N-(4-(5-(difluoromethyl)-1,3,4-oxadiazol-2-yl)benzyl)-6-isopropyl-2,6-diazaspiro[3.3]heptan-2-carbothioamide], the values for the half-maximal inhibitory concentration (IC50) in experiment [1] and in experiment [2] were more than 10 µM and 0.07 µM, respectively.

As to `CN1CC2(C1)CN(C(=S)N(Cc1ccc(-c3nnc(C(F)F)o3)cc1)c1ccc(F)c(F)c1)C2` [Compound 30, N-(4-(5-(difluoromethyl)-1,3,4-oxadiazol-2-yl)benzyl)-N-(3,4-difluorophenyl)-6-methyl-2,6-diazaspiro[3.3]heptan-2-carbothioamide], the IC50 is more than 10 µM in experiment [1] and 0.024 µM in experiment [2].

`CC(C)N1CC2(CN(C(=S)N(Cc3ccc(-c4nnc(C(F)F)o4)cc3)c3ccc(F)c(F)c3)C2)C1` [Compound 31, N-(4-(5-(difluoromethyl)-1,3,4-oxadiazol-2-yl)benzyl)-N-(3,4-difluorophenyl)-6-isopropyl-2,6-diazaspiro[3.3]heptan-2-carbothioamide]: the half-maximal inhibitory concentration (IC50) is more than 10 µM in experiment [1] and 0.035 µM in experiment [2].

Regarding `Fc1ccc(N(Cc2ccc(-c3nnc(C(F)F)o3)cc2)C(=S)N2CC3(C2)CN(C2COC2)C3)cc1F` [Compound 32, N-(4-(5-(difluoromethyl)-1,3,4-oxadiazol-2-yl)benzyl)-N-(3,4-difluorophenyl)-6-(oxetan-3-yl)-2,6-diazaspiro[3.3]heptan-2-carbothioamide], the 50% inhibitory concentration (IC50) is more than 10 µM in experiment [1] and 0.045 µM in experiment [2].

`CC(=O)N1CC2(C1)CN(C(=S)N(Cc1ccc(-c3nnc(C(F)F)o3)cc1F)c1ccc(F)c(F)c1)C2` [Compound 33, 6-acetyl-N-(4-(5-(difluoromethyl)-1,3,4-oxadiazol-2-yl)-2-fluorobenzyl)-N-(3,4-difluorophenyl)-2,6-diazaspiro[3.3]heptan-2-carbothioamide]: the values for the IC50 in experiment [1] and in experiment [2] were more than 10 µM and 0.035 µM, respectively.

`Fc1ccc(N(Cc2ccc(-c3nnc(C(F)F)o3)cc2F)C(=S)N2CC3(C2)CN(C2COC2)C3)cc1F` [Compound 34, N-(4-(5-(difluoromethyl)-1,3,4-oxadiazol-2-yl)-2-fluorobenzyl)-N-(3,4-difluorophenyl)-6-(oxetan-3-yl)-2,6-diazaspiro[3.3]heptan-2-carbothioamide]: the IC50 was more than 10 µM in experiment [1] and 0.047 µM in experiment [2].

For `CN1CC2(C1)CN(C(=S)N(Cc1ccc(-c3nnc(C(F)F)o3)cc1F)c1cccc(F)c1)C2` [Compound 36, N-(4-(5-(difluoromethyl)-1,3,4-oxadiazol-2-yl)-2-fluorobenzyl)-N-(3-fluorophenyl)-6-methyl-2,6-diazaspiro[3.3]heptan-2-carbothioamide], the IC50 in experiment [1] was more than 10 µM; in experiment [2], 0.043 µM.

For the compound `CC(C)N1CC2(CN(C(=S)N(Cc3ccc(-c4nnc(C(F)F)o4)cc3F)c3cccc(F)c3)C2)C1` [Compound 37, N-(4-(5-(difluoromethyl)-1,3,4-oxadiazol-2-yl)-2-fluorobenzyl)-N-(3-fluorophenyl)-6-isopropyl-2,6-diazaspiro[3.3]heptan-2-carbothioamide], the figures for the half-maximal inhibitory concentration (IC50) in experiment [1] and in experiment [2] were more than 10 µM and 0.067 µM, respectively.

Regarding `Fc1cccc(N(Cc2ccc(-c3nnc(C(F)F)o3)cc2F)C(=S)N2CC3(C2)CN(C2COC2)C3)c1` [Compound 38, N-(4-(5-(difluoromethyl)-1,3,4-oxadiazol-2-yl)-2-fluorobenzyl)-N-(3-fluorophenyl)-6-(oxetan-3-yl)-2,6-diazaspiro[3.3]heptan-2-carbothioamide], the values for the IC50 in experiment [1] and in experiment [2] were more than 10 µM and 0.051 µM, respectively.

On to `CN1C[C@@H]2C[C@H]1CN2C(=S)N(Cc1ccc(-c2nnc(C(F)F)o2)cc1F)c1ccc(F)cc1` [Compound 39, (1S,4S)—N-(4-(5-(difluoromethyl)-1,3,4-oxadiazol-2-yl)-2-fluorobenzyl)-N-(4-fluorophenyl)-5-methyl-2,5-diazabicyclo[2.2.1]heptan-2-carbothioamide], for which the IC50 in experiment [1] is more than 10 µM; in experiment [2], 0.03 µM.

Regarding `CC(C)N1C[C@@H]2C[C@H]1CN2C(=S)N(Cc1ccc(-c2nnc(C(F)F)o2)cc1F)c1ccc(F)cc1` [Compound 40, (1S,4S)—N-(4-(5-(difluoromethyl)-1,3,4-oxadiazol-2-yl)-2-fluorobenzyl)-N-(4-fluorophenyl)-5-isopropyl-2,5-diazabicyclo[2.2.1]heptan-2-carbothioamide], the half-maximal inhibitory concentration (IC50) was more than 10 µM in experiment [1] and 0.055 µM in experiment [2].

Regarding `Fc1ccc(N(Cc2ccc(-c3nnc(C(F)F)o3)cc2F)C(=S)N2C[C@@H]3C[C@H]2CN3C2COC2)cc1` [Compound 41, (1S,4S)—N-(4-(5-(difluoromethyl)-1,3,4-oxadiazol-2-yl)-2-fluorobenzyl)-N-(4-fluorophenyl)-5-(oxetan-3-yl)-2,5-diazabicyclo[2.2.1]heptan-2-carbothioamide], the IC50 is more than 10 µM in experiment [1] and 0.073 µM in experiment [2].

In the case of `Fc1ccc(N(Cc2ccc(-c3nnc(C(F)F)o3)cc2F)C(=S)N2C[C@@H]3C[C@H]2CN3C2COC2)cc1F` [Compound 43, (1S,4S)—N-(4-(5-(difluoromethyl)-1,3,4-oxadiazol-2-yl)-2-fluorobenzyl)-N-(3,4-difluorophenyl)-5-(oxetan-3-yl)-2,5-diazabicyclo[2.2.1]heptan-2-carbothioamide], the IC50 in experiment [1] is more than 10 µM; in experiment [2] it was 0.077 µM.

On to `CN1CC2(CCN(C(=S)N(Cc3ccc(-c4nnc(C(F)F)o4)cc3F)c3ccc(F)c(F)c3)CC2)C1` [Compound 44, N-(4-(5-(difluoromethyl)-1,3,4-oxadiazol-2-yl)-2-fluorobenzyl)-N-(3,4-difluorophenyl)-2-methyl-2,7-diazaspiro[3.5]nonan-7-carbothioamide], for which the concentration for half-maximal inhibition (IC50) in experiment [1] was more than 10 µM; in experiment [2], 0.08 µM.

On to `Fc1ccc(N(Cc2ccc(-c3nnc(C(F)F)o3)cc2F)C(=S)N2CCC3(CC2)CN(C2COC2)C3)cc1F` [Compound 45, N-(4-(5-(difluoromethyl)-1,3,4-oxadiazol-2-yl)-2-fluorobenzyl)-N-(3,4-difluorophenyl)-2-(oxetan-3-yl)-2,7-diazaspiro[3.5]nonan-7-carbothioamide], for which the 50% inhibitory concentration (IC50) in experiment [1] is more than 10 µM; in experiment [2], 0.196 µM.

For the compound `CN1CCC2(CC1)CN(C(=S)N(Cc1ccc(-c3nnc(C(F)F)o3)cc1F)c1ccc(F)c(F)c1)C2` [Compound 46, N-(4-(5-(difluoromethyl)-1,3,4-oxadiazol-2-yl)-2-fluorobenzyl)-N-(3,4-difluorophenyl)-7-methyl-2,7-diazaspiro[3.5]nonan-2-carbothioamide], the concentration for half-maximal inhibition (IC50) in experiment [1] is more than 10 µM; in experiment [2], 0.028 µM.
